This passage reports IC50 results from patent publication US8389557B2, “Triazole derivatives useful as Axl inhibitors” (Rigel Pharmaceuticals, Inc., priority 2005, dated 2013).

pIC50: −log10 of the molar value.

This experiment concerns the target T1, Axl (Homo sapiens, UniProt P30530).
T1 construct: endogenous in cells; host or cells: HeLa cells
T1 sequence (P30530 26-894): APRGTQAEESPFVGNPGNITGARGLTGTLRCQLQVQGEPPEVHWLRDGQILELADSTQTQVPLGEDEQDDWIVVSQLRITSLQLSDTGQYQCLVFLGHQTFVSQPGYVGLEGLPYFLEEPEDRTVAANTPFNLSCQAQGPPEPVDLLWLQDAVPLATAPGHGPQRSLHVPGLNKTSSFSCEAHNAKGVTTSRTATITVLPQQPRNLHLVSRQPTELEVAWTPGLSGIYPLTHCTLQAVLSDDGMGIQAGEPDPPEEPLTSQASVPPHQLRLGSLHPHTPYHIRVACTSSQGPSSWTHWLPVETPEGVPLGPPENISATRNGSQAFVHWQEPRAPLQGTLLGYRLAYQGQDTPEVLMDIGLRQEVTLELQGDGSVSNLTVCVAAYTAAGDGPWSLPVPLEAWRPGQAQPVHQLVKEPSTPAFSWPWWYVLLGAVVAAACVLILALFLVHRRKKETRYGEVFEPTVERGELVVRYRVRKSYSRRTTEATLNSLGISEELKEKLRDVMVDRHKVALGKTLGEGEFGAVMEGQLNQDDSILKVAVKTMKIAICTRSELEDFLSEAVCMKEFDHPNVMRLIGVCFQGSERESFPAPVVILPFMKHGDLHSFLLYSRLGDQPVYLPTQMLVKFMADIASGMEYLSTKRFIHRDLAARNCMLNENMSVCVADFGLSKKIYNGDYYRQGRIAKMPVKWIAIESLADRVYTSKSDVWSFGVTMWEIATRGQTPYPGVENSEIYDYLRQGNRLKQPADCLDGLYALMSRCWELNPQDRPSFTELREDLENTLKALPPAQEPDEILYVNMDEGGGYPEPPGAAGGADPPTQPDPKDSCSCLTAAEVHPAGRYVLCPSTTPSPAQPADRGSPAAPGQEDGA
As to the kind of experiment: Phospho-Akt in-cell Western assay (inhibition of Axl activity). The format is cell-based. In outline:
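HeLa cells on poly-L-lysine, starved 24 h in 0.5% FCS DMEM with Axl/Fc 500 ng/mL, pre-treated with compound 1 h at 37° C. Axl stimulated 5 min by anti-Axl/anti-mouse antibody cross-linking. Fixed cells probed with anti-phospho-Akt and HRP secondary, chemiluminescence read.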

Where [1] appears, read: Table 8, Hela cells, Axl antibody cross-linking stimulation, phospho-Akt chemiluminescence.
Where [2] appears, read: Table 5, Hela cells, Axl antibody cross-linking stimulation, phospho-Akt chemiluminescence.
Where [3] appears, read: inhibition of Axl activity, Table 1.
[4] abbreviates: Table 3, Hela cells, Axl antibody cross-linking stimulation, phospho-Akt chemiluminescence.
[5] abbreviates: Table 7, Hela cells, Axl antibody cross-linking stimulation, phospho-Akt chemiluminescence.
The mark [6] stands for this setting: inhibition of Axl activity, phospho-Akt in-cell Western assay, Table 1.

As for `Cc1ccc(NC(=O)n2nc(N)nc2Nc2ccc(OCCN3CCCCC3)cc2)cc1` [compound 183, 3-amino-N-(4-(methyl)phenyl)-5-[4-[2-(piperidin-1-yl)ethoxy]phenylamino]-1H-1,2,4-triazole-1-carboxamide], the negative-log IC50 (pIC50) under setting [1] is 5.00 to 6.00.
As for `CC(C)Oc1ccc(C(=O)n2nc(Nc3ccc4c(c3)C(NC(=O)OC(C)(C)C)CCO4)nc2N)cc1` (stereo not drawn) [compound 274], the negative-log IC50 (pIC50) under setting [2] is less than 4.70.
For `CC(C)(C)OC(=O)NC1CCOc2ccc(Nc3nc(N)n(C(=O)c4ccc5cc[nH]c5c4)n3)cc21` (stereo not drawn) [compound 276], the negative logarithm of the IC50 (pIC50) (Table 9, Hela cells, Axl antibody cross-linking stimulation, phospho-Akt chemiluminescence) is 5.00 to 6.00.
For the compound `Cc1ccc(Nc2nc(N)n(C(=O)c3ccc(C)cc3)n2)cc1` [compound 131, 5-amino-3-[4-(methyl)phenylamino]-1-(4-(methyl)phenyl)carbonyl-1H-1,2,4-triazole], under setting [3], the pIC50 was less than 4.70.
The compound `CC(C)Oc1ccc(C(=O)n2nc(Nc3ccc4c(c3)NC(=O)C(F)(F)O4)nc2N)cc1` [compound 63, 5-amino-3-(2,2-difluoro-2H-benzo[b][1,4]oxazin-3(4H)-on-6-yl)amino-1-(4-(iso-propoxy)phenyl)carbonyl-1H-1,2,4-triazole] gave a negative-log IC50 (pIC50) under setting [2] of less than 4.70.
As for `Cc1ccc(C(=O)n2nc(Nc3ccc(N4CCOCC4)cc3)nc2N)cc1` [compound 54, 5-amino-1-(4-(methyl)phenyl)carbonyl-3-(4-(morpholin-4-yl)phenylamino)-1H-1,2,4-triazole], under setting [3], the pIC50 was greater than 6.00.
Turning to `Cc1ccc(C(=O)n2nc(Nc3ccc(OCCN4CCCC4)cc3)nc2N)cn1` [compound #28, 5-Amino-1-(6-(methyl)pyridin-3-yl)carbonyl-3-[4-[2-(pyrrolidin-1-yl)ethoxy]phenylamino]-1H-1,2,4-triazole], under setting [4], the pIC50 was 5.00 to 6.00.
The compound `Cc1cccc(C(=O)n2nc(Nc3ccc4sncc4c3)nc2N)c1` [compound 259, 5-amino-3-(1,2-benzisothiazol-5-yl)amino-1-(3-methylphenyl)carbonyl-1H-1,2,4-triazole] showed a negative logarithm of the IC50 (pIC50) under setting [2] of less than 4.70.
On to `Nc1nc(Nc2ccc3c(c2)OCCO3)nn1C(=O)c1ccc(OC2CCCC2)cc1` [compound 120], for which, under setting [3], the pIC50 is less than 4.70.
The compound `Cc1cccc(C(=O)n2nc(Nc3ccc4ncccc4c3)nc2N)c1` [compound 251, 5-amino-1-(3-methylphenyl)carbonyl-3-(6-quinolinyl)amino-1H-1,2,4-triazole] had a negative-log IC50 (pIC50) under setting [2] of 5.00 to 6.00.
On to `Cc1cc(C)cc(NC(=O)n2nc(Nc3ccc(OCCN4CCCCC4)cc3)nc2N)c1` [compound 199, 5-amino-N-(3,5-(dimethyl)phenyl)-3-[4-[2-(piperidin-1-yl)ethoxy]phenylamino]-1H-1,2,4-triazole-1-carboxamide], for which the pIC50 under setting [5] is less than 4.70.
As for `CC(C)(C)Oc1ccc(C(=O)n2nc(NC3CCN(S(C)(=O)=O)CC3)nc2N)cc1` [compound 393, 5-amino-1-(4-(tert-butoxy)phenyl)carbonyl-3-(1-methylsulfonylpiperidin-4-yl)amino-1H-1,2,4-triazole], under setting [2], the pIC50 was less than 4.70.
Compound `Nc1nc(Nc2ccc(OCCN3CCCC3)cc2)nn1C(=O)c1ccc2ncccc2c1` [compound 288, 5-amino-1-(quinolin-6-yl)carbonyl-3-[4-[2-(pyrrolidin-1-yl)ethoxy]phenylamino]-1H-1,2,4-triazole] gave a negative logarithm of the IC50 (pIC50) under setting [4] greater than 6.00.
As for `COc1cccc(Nc2nc(N)n(C(=O)c3ccc(OC(C)C)cc3)n2)c1` [compound 121, 5-amino-1-(4-(iso-propoxy)phenyl)carbonyl-3-[3-(methoxy)phenylamino]-1H-1,2,4-triazole], the pIC50 under setting [3] was 5.00 to 6.00.
`Cc1cccc(C(=O)n2nc(Nc3ccc4c(c3)N(C(=O)OC(C)(C)C)CCO4)nc2N)c1` [compound 206, 5-amino-3-[(2H,3H-4-tert-butoxycarbonylbenzo[1,4]oxazin-6-yl)amino]-1-(3-methylphenyl)carbonyl-1,2,4-triazole] had a pIC50 under setting [2] of less than 4.70.
In turn, `Cc1cccc(NC(=O)n2nc(Nc3ccc(OCCN4CCCC4)cc3)nc2N)c1` [compound 31, 5-amino-N-(3-methylphenyl)-3-[4-[2-(pyrrolidin-1-yl)ethoxy]phenylamino]-1H-1,2,4-triazole-1-carboxamide] gave a negative-log IC50 (pIC50) under setting [5] greater than 6.00.
Still for that read-out and setting: under `CC(C)c1ccc(NC(=O)n2nc(Nc3ccc(OCCN4CCCCC4)cc3)nc2N)cc1` [compound 41, 5-amino-N-(4-(iso-propyl)phenyl)-3-[4-[2-(piperidin-1-yl)ethoxy]phenylamino]-1H-1,2,4-triazole-1-carboxamide] stands 5.00 to 6.00.
The compound `CC(C)Oc1ccc(C(=O)n2nc(N)nc2Nc2ccc(N3CCN(C)CC3)cc2)cc1` [compound 360, 3-amino-1-(4-(iso-propoxy)phenyl)carbonyl-5-(4-(4-methylpiperazin-1-yl)phenylamino]-1H-1,2,4-triazole] gave a pIC50 (Table 2, Hela cells, Axl antibody cross-linking stimulation, phospho-Akt chemiluminescence) of 5.00 to 6.00.
As to `Cc1cccc(C(=O)n2nc(Nc3ccc(OCCN4CCSCC4)cc3)nc2N)c1` [compound 61], under setting [3], the pIC50 is 5.00 to 6.00.
With `CN(C)CCOc1ccc(Nc2nc(N)n(C(=O)c3ccc(N(C)C)cc3)n2)cc1` [compound 87, 5-amino-3-[4-[2-(dimethylamino)ethoxy]phenylamino]-1-(4-(dimethylamino)phenyl)carbonyl-1H-1,2,4-triazole], the pIC50 under setting [6] is greater than 6.00.
The same measure, in the same setting: under `CN1CCN(c2ccc(C(=O)n3nc(Nc4ccc(OCCN5CCCC5)cc4)nc3N)cc2)CC1` [compound 383, 5-amino-1-(4-(4-methylpiperazin-1-yl)phenyl)carbonyl-3-[4-[2-(pyrrolidin-1-yl)ethoxy]phenylamino]-1H-1,2,4-triazole] stands greater than 6.00.
In the case of `Cc1cccc(C(=O)n2nc(Nc3cccc(OCC(=O)NCCO)c3)nc2N)c1` [compound 225, 5-amino-3-[3-((2-hydroxyethyl)aminocarbonylmethoxy)phenyl]amino-1-(3-methylphenyl)carbonyl-1H-1,2,4-triazole], the pIC50 under setting [3] was 5.00 to 6.00.
The compound `Nc1nc(Nc2ccc(OCCN3CCCC3)cc2)nn1C(=O)c1cccc(N2CCOCC2)c1` [compound 331, 5-amino-1-(3-(morpholin-4-yl)phenyl)carbonyl-3-[4-[2-(pyrrolidin-1-yl)ethoxy]phenylamino]-1H-1,2,4-triazole] gave a pIC50 under setting [6] greater than 6.00.
The compound `CCCCOc1ccc(NC(=O)n2nc(N)nc2Nc2ccc(OCCN3CCCCC3)cc2)cc1` [compound 182, 3-amino-N-(4-(butoxy)phenyl)-5-[4-[2-(piperidin-1-yl)ethoxy]phenylamino]-1H-1,2,4-triazole-1-carboxamide] gave a pIC50 under setting [1] of less than 4.70.
`CN(C)c1cccc(C(=O)n2nc(N)nc2NC2C3C=CC(C3)C2C(N)=O)c1` (stereo not drawn) [compound 351, 3-amino-1-(3-(dimethylamino)phenyl)carbonyl-5-[(3-(aminocarbonyl)bicyclo[2.2.1]hept-5-en-2-yl)amino]-1H-1,2,4-triazole] had a negative logarithm of the IC50 (pIC50) (Table 6, Hela cells, Axl antibody cross-linking stimulation, phospho-Akt chemiluminescence) of less than 4.70.
Consider `CC(C)Oc1ccc(C(=O)n2nc(Nc3ccc(OCCC4OCCO4)cc3)nc2N)cc1` [compound 158, 5-amino-3-[4-[2-(1,3-dioxolan-2-yl)ethoxy]phenylamino]-1-(4-(iso-propoxy)phenyl)carbonyl-1H-1,2,4-triazole], for which the negative-log IC50 (pIC50) under setting [3] is 5.00 to 6.00.
`Nc1nc(Nc2ccc(OCCN3CCCC3)cc2)nn1C(=O)c1ccc(-c2csnn2)cc1` [compound 280, 5-amino-1-(4-(1,2,3-thiadiazol-4-yl)phenyl)carbonyl-3-[4-[2-(pyrrolidin-1-yl)ethoxy]phenylamino]-1H-1,2,4-triazole] had a pIC50 under setting [6] greater than 6.00.
Same read-out and setting: under `Nc1nc(Nc2ccc(OCCN3CCCC3)cc2)nn1C(=O)c1cccc(-c2nccs2)c1` [compound 310, 5-amino-1-(3-(thiazol-2-yl)phenyl)carbonyl-3-[4-[2-(pyrrolidin-1-yl)ethoxy]phenylamino]-1H-1,2,4-triazole] stands greater than 6.00.
The same measure, in the same setting: the figure for `Cc1ccc(C(=O)n2nc(Nc3ccc(N4CCCC4)cc3)nc2N)cc1` [compound 300, 5-amino-1-(4-(methyl)phenyl)carbonyl-3-[4-(pyrrolidin-1-yl)phenylamino]-1H-1,2,4-triazole] is 5.00 to 6.00.
Turning to `CN(C)CCOc1ccc(Nc2nc(N)n(C(=O)c3ccc4c(c3)NC(=O)C(C)(C)O4)n2)cc1` [compound 86, 5-amino-3-[4-[2-(dimethylamino)ethoxy]phenylamino]-1-(2,2-dimethyl-2H-benzo[b][1,4]oxazin-3(4H)-on-6-yl)carbonyl-1H-1,2,4-triazole], the negative logarithm of the IC50 (pIC50) under setting [4] is greater than 6.00.

As a reminder, the pIC50 is −log10 of the IC50, conventionally taken in molar units. Read a high pIC50 as a small IC50.
